Test results: ChEMBL document CHEMBL1154198, “Chemical genetics of Plasmodium falciparum” (Nature, 2010)

Columns and labels:
[1] = system: Plasmodium falciparum; test: ST_JUDE: Plasmodium falciparum K1 EC50 (uM) as measured by SYBR green dye; assay type: functional, organism-based
[2] = system: Plasmodium falciparum; test: ST_JUDE: Plasmodium falciparum 3D7 EC50 (uM) as measured by SYBR green dye; assay type: functional, organism-based

| Structure (SMILES) | EC50 [1] [µM] | EC50 [2] [µM] |
| --- | --- | --- |
| O=C(Nc1cc(Cl)cc(Cl)c1)Nc1ccc(Cl)c(Cl)c1 | 0.496 | 0.772 |
| Cc1ccnc(NC(c2cccc(Cl)c2Cl)c2ccc3cccnc3c2O)c1 (centres undefined) | 1.67 | 1.5 |
| COc1cccc(NC(=O)Cn2c(C)c(C(=O)C(F)(F)F)c3ccccc32)c1 | 1.62 | > 15 |
| CCOC(=O)c1c(CN(CC)CC)n(-c2ccccc2)c2cc(Br)c(O)cc12 | 3.45 | 1.78 |
| COc1ccc(OC)c(NC(=O)CSc2nc(-c3ccccc3Cl)ns2)c1 | 1.42 | 1.25 |
| CCOC(=O)c1nnn(-c2nonc2N)c1-c1ccc(Cl)cc1 | 3.47 | > 15 |
| COc1ccc2c(ccc(/C=C3\C=CC=CN3C)[n+]2C)c1 | 0.842 | 1.17 |
| O=C(Cc1ccc(Br)cc1)OCC(=O)c1ccc(F)cc1 | > 15 | > 15 |
| CO/C(O)=C1\C(C)=NC2=C(C(=O)CC(c3ccccc3OC)C2)C1c1ccc(OC)c(OC)c1 (centres undefined) | > 15 | > 15 |
| COc1ccc(CCNC(=S)Nc2ccccc2Cl)cc1OC | 1.36 | 1.29 |
| CCOc1ccccc1NC(=S)N1CCN(c2ccc(OC)cc2)C(C)C1 (centres undefined) | 4.26 | 2.85 |
| Cc1ccc2nc(C)cc(Nc3cccc(C(F)(F)F)c3)c2c1 | 6.01 | 0.879 |
| CCOC(=O)C1=C(Nc2ccc(Cl)cc2)S/C(=C\c2cccc(OC)c2O)C1=O | 4 | > 15 |
| CCN(CC)c1ccc(/C=C/C2=[N+](C)c3ccc(C(=O)OC)cc3C2(C)C)cc1 | > 15 | 3.08 |
| CSCCC(=O)N(C)C(Cc1ccc(F)cc1)C1CCN(C(=O)c2cc3ccccc3n2C)CC1 (centres undefined) | > 15 | > 15 |
| O=C(c1ccco1)N(Cc1cccnc1)c1nc2ccc(F)cc2s1 | > 15 | > 15 |
| C#CCOc1cc(Br)c(C2CC(=O)Nc3ccc4ccccc4c32)cc1OC (centres undefined) | 2.96 | 3.96 |
| Cc1ccc(NC(=O)CSc2nncc(O)n2)cc1 | 0.924 | 4.88 |
| COc1ccc(N2CCN(C(CNC(=O)c3ccc(C(C)(C)C)cc3)c3ccco3)CC2)cc1 (centres undefined) | 1.51 | > 15 |
| Cc1ccccc1NC(=O)C1c2ccccc2C(=O)N(C2CCCC2)C1c1cccs1 (centres undefined) | 4.34 | 2.82 |
| CC(=O)N(C1=C(N2CCOCC2)C(=O)c2ccccc2C1=O)c1ccc(C(=O)O)cc1 | 2.64 | > 15 |

| Structure (SMILES) | EC50 [1] [µM] | EC50 [2] [µM] |
| --- | --- | --- |
| COc1ccc(Cl)cc1N(C)C(=O)c1cc2c(s1)-c1ccccc1S(=O)(=O)C2 | 1.78 | 1.35 |
| COc1ccc(-n2c(=O)c3c4c(sc3n3c(SCc5ccccc5)nnc23)COC(C)(C)C4)cc1 | > 15 | 11.3 |
| Oc1c(CN2CCN(c3cccc(C(F)(F)F)c3)CC2)cc(COCc2ccccc2)c2cccnc12 | 1.45 | 2.33 |
| COc1ccc(NC2=C(N3CCOCC3)C(=O)c3ccccc3C2=O)cc1 | 0.286 | > 15 |
| CCc1cccc(NC(=O)c2cc3c(-c4ccc(OC)c(OC)c4)nn(C)c3s2)c1 | > 15 | > 15 |
| Cc1ccc(NC(=O)Nc2cccc(Cl)c2)cc1F | > 15 | > 15 |
| C[n+]1ccccc1-c1nc2ccccc2s1 | 5.81 | > 15 |
| CCCN(CCC)CCCNC(=O)c1ccc2c(Cl)c3c(nc2c1)CCCC3 | > 15 | > 15 |
| CC(C)(C)c1ccc(C(=O)CC(=O)c2cc(Cl)ccc2O)cc1 | > 15 | > 15 |
| CC(C)Cc1ccc(S(=O)(=O)N2c3ccccc3CC2C)cc1 (centres undefined) | > 15 | > 15 |
| CCOc1ccc(NC(=O)C2c3cc(OC)c(OC)cc3C(=O)N(C)C2c2ccc(OC)cc2)cc1 (centres undefined) | 1.07 | > 15 |
| CCCO/C(O)=C1\C(C)=NC2=C(C(=O)CC(c3ccccc3OC)C2)C1c1ccc(OC)c(OC)c1 (centres undefined) | 3.8 | 3.85 |
| CCN(CC)CCNC(=O)c1ccc(Cn2c(SCc3ccccc3C)nc3ccncc32)cc1 | > 15 | 6.74 |
| CCN1CCN(c2cc(C)c3cc(NC(=S)N4CCC(N5CCCCC5)CC4)ccc3n2)CC1 | 7.89 | 5.91 |
| CCc1ccc(S(=O)(=O)/N=C2/C=C(Sc3nc[nH]n3)C(=O)c3ccccc32)cc1 | 6.99 | 4.79 |
| C/C(Cl)=C\C[N+]1(C/C=C(\C)Cl)CCCCC1 | > 15 | > 15 |
| CCOc1ccccc1N1CCN(Cc2cc(Br)cc(Br)c2O)CC1 | 3.78 | 8.24 |
| COc1ccc(C2C(C(=O)Nc3cnc4ccccc4c3)c3ccccc3C(=O)N2C2CCCCC2)cc1 (centres undefined) | 3.37 | 1.63 |
| COC(=O)c1cc(NS(=O)(=O)c2ccccc2[N+](=O)[O-])cc(C(=O)OC)c1 | > 15 | > 15 |
| CC(C)(C)c1ccc2c(c1)CN(Cc1ccc(Cl)cc1)CO2 | 0.0389 | 0.255 |
| CCOc1ccc(Nc2cc(C)nc3ccc(OCC)cc23)cc1 | 3.48 | 1.1 |

| Structure (SMILES) | EC50 [1] [µM] | EC50 [2] [µM] |
| --- | --- | --- |
| CC(=O)NC(c1ccc(C(C)C)cc1)c1ccc2cccnc2c1O (centres undefined) | 6.76 | 6.6 |
| CC(C)C[C@@H](CO)Nc1c2ccccc2nc2ccccc12 | 4.3 | 2.85 |
| COc1ccc2nc(N(Cc3cccnc3)C(=O)c3cccc(Cl)c3)sc2c1 | > 15 | > 15 |
| Oc1c(C(Nc2ccccn2)c2ccccc2Br)cc(Cl)c2cccnc12 (centres undefined) | > 15 | 2.13 |
| CCCCn1c(=N)n(CC(O)c2ccc(Cl)cc2)c2ccccc21 (centres undefined) | 0.544 | 0.574 |
| COC(=O)c1c(N)n(-c2ccc(F)cc2F)c2nc3ccccc3nc12 | 3.98 | 0.853 |
| CCCCNc1nc(Nc2cccc(C)c2)c2cnn(-c3ccccc3)c2n1 | 7.9 | > 15 |
| CC(C)(O)C#Cc1ccc([C@@H]2C[C@H]3CN(Cc4cccc(Cl)c4)C(=O)[C@]34CCCN24)cc1 | 5.79 | 4.64 |
| Cc1c(Cl)c(C(F)(F)F)nn1CC(=O)Nc1cccc(C(F)(F)F)c1 | 4.43 | > 15 |
| CCOc1ccc2c(c1)C(=NNC(=N)N)c1cc(OCC)ccc1-2 | 6.96 | 0.398 |
| COc1cc(Br)c(C2C(C#N)=C(N)Oc3cc(O)ccc32)cc1OC (centres undefined) | 5.8 | > 15 |
| Cc1ccc2c(c1)c1c(n2CC(O)Cn2cnc(-c3ccccc3)c2-c2ccccc2)CCCC1 (centres undefined) | 1.08 | 2.02 |
| COc1ccc2sc(N(Cc3cccnc3)C(=O)c3ccc(C#N)cc3)nc2c1 | > 15 | > 15 |
| Clc1cccc(C2Nc3ccccc3-c3nc4ccccc4n32)c1 (centres undefined) | 4.63 | > 15 |
| CCCc1cc(O)nc(-n2nc(C)cc2NC(=O)c2ccc(Cl)cc2)n1 | > 15 | > 15 |
| Cc1cccc(C(=O)NCc2nnc(S)n2-c2cccc(C(F)(F)F)c2)c1 | > 15 | > 15 |
| CCOc1cccc(CN2CCCC(C(=O)c3cccc(C(F)(F)F)c3)C2)c1O (centres undefined) | 1.09 | 3.34 |
| C=CCN(CC=C)CCN1CCN(C(=O)Nc2cc(C(F)(F)F)cc(C(F)(F)F)c2)CC1 | 0.535 | 0.711 |
| CCOc1ccc(S(=O)(=O)NC2=C/C(=N\c3ccc(O)cc3)C(=O)c3ccccc32)cc1 | 1.03 | 1.25 |
| CCCCCCn1c(N)c(C(=O)OC)c2nc3ccccc3nc21 | > 15 | > 15 |
